Measured values: PMC10139140, “Synthesis of Novel 2-(Cyclopentylamino)thiazol-4(5H)-one Derivatives with Potential Anticancer, Antioxidant, and 11β-HSD Inhibitory Activities” (International Journal of Molecular Sciences, 2023)

How the values were obtained:
[1] = test system: skin melanoma (SK-MEL-30); experiment: MTS metabolic activity assay, SK-MEL-30 cells; assay type: cell-based; details: Homo sapiens, 72 h, read-out: Cell metabolic activity (MTS), % of untreated control
Procedure: (§1) The BJ (CRL-2522), Caco-2 (HTB-37), PANC-1 (CRL-1469), U-118 MG (HTB-15), SK-MEL-30 (ACC 151), and MDA-MB-231 (HTB-26) cell lines were purchased from ATCC (Manassas, VA, USA) or DSMZ (Braunschweig, GERMANY). Cells were cultured in accordance with manufacturers' recommendations in a DMEM, MEM, or RPMI-1640 (Sigma, Saint Louis, MO, USA; Gibco, Waltham, MA, USA), supplemented with 10% FBS, except for Caco-2 (20%) (Thermo Fisher Scientific, Waltham, MA, USA) and 1% antibiotic mix solution (penicillin, streptomycin; Thermo Fisher Scientific, Waltham, MA, USA) in a humidified atmosphere with 5% CO2 at 37 °C. All cell lines were cultured in T75 cell culture flasks or cell culture dishes to reach 80–90% confluency and seeded at a standard density of 5 × 10^3 cells/0.32 cm^2, except for BJ cells at 2 × 10^3 cells/0.32 cm^2.
(§2) The MTS ((MTS: 3-(4,5-dimethylthiazol-2-yl)-5-(3-carboxymethoxyphenyl)-2-(4-sulfophenyl)-2H-tetrazolium)) assay was performed following previously reported method. Briefly, cells were seeded at a standard density into 96-well flat-bottom plates and incubated for 24 h, followed by the treatment. The various concentrations of compounds were prepared and treated for the next 72 h. MTS solution was added for 3h and incubated at standard conditions, protected from light. Finally, the absorbance was read at […] and 620 nm wavelengths using a Synergy H1 microplate reader (BioTek, Santa Clara, CA, USA). The results are presented as %, while untreated control cells were considered 100%.

[2] = test system: human breast carcinoma (MDA-MB-231); experiment: MTS metabolic activity assay, MDA-MB-231 cells; assay type: cell-based; details: Homo sapiens, 72 h, read-out: Cell metabolic activity (MTS), % of untreated control
Procedure: as §1, §2

[3] = test system: human colon carcinoma (Caco-2); experiment: MTS metabolic activity assay, Caco-2 cells; assay type: cell-based; details: Homo sapiens, 72 h, read-out: Cell metabolic activity (MTS), % of untreated control
Procedure: as §1, §2

glioma (U-118 MG) = experiment: MTS metabolic activity assay, U-118 MG cells; assay type: cell-based; details: Homo sapiens, U-118-MG, U118-MG, 72 h, read-out: Cell metabolic activity (MTS), % of untreated control
Procedure: as §1, §2

11β-HSD1 = target: T1, 11β-HSD1 (Homo sapiens, UniProt P28845); experiment: Inhibition of 11β-HSD1 (cortisone to cortisol, human liver microsomes, cortisol ELISA); assay type: biochemical
T1 construct: Human liver microsomes were used as a source of 11β-HSD1 enzyme; tissue XenoTech Lot No. 1410013; host or cells: pooled human liver microsomes, mixed gender
Procedure: The resulting solution with a final volume of 100 µL was incubated for 2.5 h at 37 °C. To stop the reaction, 10 µL of a 100 µM solution of 18β-glycyrrhetinic acid in PBS was added. The level of cortisol obtained in the reaction was measured by commercially available ELISA kit.
As a control, analogous tests without the addition of inhibitors were used. Half the inhibitory concentration (causing 50% reduction of cortisol or cortisone) was read from the chart.

[4] = test system: human pancreatic carcinoma (PANC-1); experiment: MTS metabolic activity assay, PANC-1 cells; assay type: cell-based; details: Homo sapiens, 72 h, read-out: Cell metabolic activity (MTS), % of untreated control
Procedure: as §1, §2

11β-HSD2 = target: T2, 11β-HSD2 (Homo sapiens, UniProt P80365); experiment: Inhibition of 11β-HSD2 (cortisol to cortisone, human microsomes, cortisol ELISA); assay type: biochemical; details: 2.5 h, 37 °C
T2 construct: Human liver microsomes were used as a source of 11β-HSD2 enzyme; tissue XenoTech Lot No. 1710160; host or cells: human kidney microsomes, mixed gender (method text says human liver microsomes)
T2 sequence (P80365 1-405): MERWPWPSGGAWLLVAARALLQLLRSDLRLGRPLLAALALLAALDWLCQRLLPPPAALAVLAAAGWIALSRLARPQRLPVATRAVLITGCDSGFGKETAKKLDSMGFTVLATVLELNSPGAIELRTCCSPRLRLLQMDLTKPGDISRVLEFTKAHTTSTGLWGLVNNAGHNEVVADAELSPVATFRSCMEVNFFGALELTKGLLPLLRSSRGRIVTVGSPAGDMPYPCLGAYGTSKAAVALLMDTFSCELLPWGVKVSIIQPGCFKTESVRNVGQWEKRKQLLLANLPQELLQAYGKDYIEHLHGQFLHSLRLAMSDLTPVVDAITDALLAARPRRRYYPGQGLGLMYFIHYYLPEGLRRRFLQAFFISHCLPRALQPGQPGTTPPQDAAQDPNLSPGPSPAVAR
Procedure: The resulting solution with a final volume of 100 µL was incubated for 2.5 h at 37 °C. […] The level of unreacted cortisol was measured by a commercially available ELISA kit.

BJ cells = experiment: MTS metabolic activity assay, BJ cells; assay type: cell-based; details: Homo sapiens, 72 h, read-out: Cell metabolic activity (MTS), % of untreated control
Procedure: as §1, §2

T1 sequence (P28845 whole entry): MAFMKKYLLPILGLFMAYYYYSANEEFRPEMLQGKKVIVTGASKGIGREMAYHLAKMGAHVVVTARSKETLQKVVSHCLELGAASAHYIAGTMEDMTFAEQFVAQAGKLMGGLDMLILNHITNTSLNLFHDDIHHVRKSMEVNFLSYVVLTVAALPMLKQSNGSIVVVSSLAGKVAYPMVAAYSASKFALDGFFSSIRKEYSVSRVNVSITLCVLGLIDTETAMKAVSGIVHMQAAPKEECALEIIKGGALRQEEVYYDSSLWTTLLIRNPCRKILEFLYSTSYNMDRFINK

`CC1SC(NC2CCCC2)=NC1=O` (stereo not drawn) [Compound 3a, 2-(cyclopentylamino)-5-methylthiazol-4(5H)-one] showed a viability at 10 µM ([1]; SK-MEL-30, 10 µM) of 104%, a viability at 20 µM ([1]; SK-MEL-30, 20 µM) of 102% and a viability at 50 µM ([1]; SK-MEL-30, 50 µM) of 102%. The viability at 100 µM ([1]; SK-MEL-30, 100 µM) was 106%, the viability at 200 µM ([1]; SK-MEL-30, 200 µM) was 103% and the viability at 300 µM ([1]; SK-MEL-30, 300 µM) was 101%. The viability at 500 µM ([1]; SK-MEL-30, 500 µM) was 97.6%, the viability at 10 µM ([2]; MDA-MB-231, 10 µM) was 105% and the viability at 20 µM ([2]; MDA-MB-231, 20 µM) was 107%. For the same compound, the viability at 50 µM ([2]; MDA-MB-231, 50 µM) was 103%, the viability at 100 µM ([2]; MDA-MB-231, 100 µM) was 105% and the viability at 200 µM ([2]; MDA-MB-231, 200 µM) was 104%. The viability at 300 µM ([2]; MDA-MB-231, 300 µM) was 93.6%, the viability at 500 µM ([2]; MDA-MB-231, 500 µM) was 89.8% and the viability at 10 µM ([3]; Caco-2, 10 µM) was 86.2%. The viability at 20 µM ([3]; Caco-2, 20 µM) was 92.8%, the viability at 50 µM ([3]; Caco-2, 50 µM) was 82.6% and the viability at 100 µM ([3]; Caco-2, 100 µM) was 81.6%. For the same compound, the viability at 200 µM ([3]; Caco-2, 200 µM) was 76.9%, the viability at 300 µM ([3]; Caco-2, 300 µM) was 75.5% and the viability at 500 µM ([3]; Caco-2, 500 µM) was 66.8%. For the same compound, the viability at 10 µM (glioma (U-118 MG); 10 µM) was 111%, the viability at 20 µM (glioma (U-118 MG); 20 µM) was 109% and the viability at 50 µM (glioma (U-118 MG); 50 µM) was 113%. It also gave a viability at 100 µM (glioma (U-118 MG); 100 µM) of 110%, a viability at 200 µM (glioma (U-118 MG); 200 µM) of 110% and a viability at 300 µM (glioma (U-118 MG); 300 µM) of 110%. The viability at 500 µM (glioma (U-118 MG); 500 µM) was 105%, the IC50 (11β-HSD1) was greater than 10 µM and the inhibition at 10 µM (11β-HSD1; 10 µM, 2.5 h, 37 °C) was 10.9 ± 4.08%. For the same compound, the viability at 10 µM ([4]; PANC-1, 10 µM) was 99.7%, the viability at 20 µM ([4]; PANC-1, 20 µM) was 104% and the viability at 50 µM ([4]; PANC-1, 50 µM) was 106%. It also gave a viability at 100 µM ([4]; PANC-1, 100 µM) of 107%, a viability at 200 µM ([4]; PANC-1, 200 µM) of 110% and a viability at 300 µM ([4]; PANC-1, 300 µM) of 106%. For the same compound, the viability at 500 µM ([4]; PANC-1, 500 µM) was 104%, the inhibition at 10 µM (11β-HSD2) was 40.3 ± 0.65% and the viability at 10 µM (BJ cells; 10 µM) was 95.9%. The viability at 20 µM (BJ cells; 20 µM) was 98.4%, the viability at 50 µM (BJ cells; 50 µM) was 102% and the viability at 100 µM (BJ cells; 100 µM) was 112%. For the same compound, the viability at 200 µM (BJ cells; 200 µM) was 109%, the viability at 300 µM (BJ cells; 300 µM) was 109% and the viability at 500 µM (BJ cells; 500 µM) was 110%.
